Data on 6 compounds can be found in ChEMBL document CHEMBL1130516, “Synthesis and biological activity of novel penem sulfoxides and sulfones” (Bioorg Med Chem Lett, 1997).

Data set [1] concerns Staphylococcus aureus. Put plainly: Inhibitory zone of compound at 30 ug against Staphylococcus aureus 1104 was determined. Type of data set: functional.
For data set [2], the system named is Enterococcus. Put plainly: Inhibitory zone of compound at 30 ug against Enterococcus was determined. Type of data set: functional.
Data set [3] has as its system Enterobacter cloacae. Put plainly: Inhibitory zone of compound at 30 ug against Enterobacter cloacae was determined. It counts as functional.
A short description of data set [4]: Compound was evaluated for relative hydrolysis rate. Type of data set: ADME.
Data set [5] relates to Pseudomonas aeruginosa. Kind of data set: Inhibitory zone of compound at 30 ug against Pseudomonas aeruginosa was determined. Type of data set: functional.
Data set [6] deals with Beta-lactamase (Enterobacter cloacae, UniProt P05364). Put plainly: Compound was evaluated for beta-lactamase inhibition activity of Enterobacter cloacae after 15 min of pre-incubation with the enzyme at 37 degree C.
In data set [7] the test system is Staphylococcus. Kind of data set: Inhibitory zone of compound at 30 ug against Staphylococcus innsbruck was determined. It counts as functional.
Data set [8] can be described thus: Compound was evaluated for half life of hydrolysis in phosphate buffer at pH 7.4 and 37 degree C. It counts as ADME.
Data set [9] has as its system Escherichia coli. Put plainly: Inhibitory zone of compound at 30 ug against Escherichia coli TEM was determined. Type of data set: functional.
In data set [10] the test system is Escherichia coli. Put plainly: Inhibitory zone of compound at 30 ug against Escherichia coli 1103 was determined. It counts as functional.
The target in data set [11] is T1, Beta-lactamase TEM (Escherichia coli, UniProt P62593). Put plainly: (§1) Compound was evaluated for beta-lactamase inhibition activity of Escherichia coli after 15 min of pre-incubation with the enzyme at 37 degree C.
Data set [12] has as its system Staphylococcus. Kind of data set: Inhibitory zone of compound at 30 ug against Staphylococcus 25768 was determined. It counts as functional.
The target in data set [13] is T1, Beta-lactamase TEM. The data set is described as §1. The arrangement: species or system Escherichia cloacae.

Beta-lactamase, sequence (P05364 whole entry): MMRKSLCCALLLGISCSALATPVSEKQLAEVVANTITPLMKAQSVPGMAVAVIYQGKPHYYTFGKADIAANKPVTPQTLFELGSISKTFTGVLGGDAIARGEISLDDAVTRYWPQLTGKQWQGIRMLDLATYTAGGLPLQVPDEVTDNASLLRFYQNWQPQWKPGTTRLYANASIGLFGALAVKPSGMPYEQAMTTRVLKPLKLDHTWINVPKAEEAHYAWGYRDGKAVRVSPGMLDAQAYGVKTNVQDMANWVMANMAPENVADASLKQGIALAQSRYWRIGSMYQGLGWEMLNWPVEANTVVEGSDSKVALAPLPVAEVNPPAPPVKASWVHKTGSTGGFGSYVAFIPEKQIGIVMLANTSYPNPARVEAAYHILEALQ
T1 sequence (P62593 whole entry): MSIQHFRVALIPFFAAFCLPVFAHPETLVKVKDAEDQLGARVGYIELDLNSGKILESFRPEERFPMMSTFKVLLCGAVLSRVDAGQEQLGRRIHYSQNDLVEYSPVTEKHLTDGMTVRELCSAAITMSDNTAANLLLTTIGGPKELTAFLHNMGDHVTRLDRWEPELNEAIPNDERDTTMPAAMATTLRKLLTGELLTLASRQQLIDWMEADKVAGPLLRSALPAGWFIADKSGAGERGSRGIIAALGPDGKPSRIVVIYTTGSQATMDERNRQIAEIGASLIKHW

By IC50 is commonly meant the concentration that inhibits the measured activity by half. One may read the half-life as how long it takes for the measured level to halve. Regarding `C[C@@H](O)[C@H]1C(=O)N2C(C(=O)[O-])=C(C(C)(C)C)S(=O)(=O)[C@H]12.[K+]`, the Inhibition zone in data set [1], in [2], in data set [3], in data set [5], in [7] and in data set [9] was 0 mm each time. Besides, the Inhibition zone in data set [10] and in [12] was 0 mm each time. The Krel in data set [4] was determined as 720. Further, the 50% inhibitory concentration (IC50) in [6] came to 0.004 µM; in [11], 10 µM. The compound further showed a half-life in data set [8] of 18 h.
In the case of `N[C@@H](C(=O)N[C@@H]1C(=O)N2C(C(=O)O)=C(Cl)CS[C@H]12)c1ccccc1.O` [CEFACLOR], the Inhibition zone worked out at 32 mm in data set [1]; 15 mm in [2]; 7 mm in [3]; 0 mm in [5]; 12 mm in data set [7]; 15 mm in [9]. Also, the Inhibition zone in [10] came to 25 mm; in data set [12], 13 mm.
Turning to `C[C@@H](O)[C@H]1C(=O)N2C(C(=O)[O-])=C(C(C)(C)C)S[C@H]12.[K+]`, the IC50 in [13] stood at 50 µM; in data set [6] it was 0.3 µM. For the same compound, the Inhibition zone is 36 mm in [1]; 11 mm in data set [2]; 10 mm in [3]; 0 mm in data set [5]; 0 mm in data set [7]; 9 mm in data set [9]. In addition, the Inhibition zone is 18 mm in data set [10] and 31 mm in data set [12]. This compound displayed a Krel in data set [4] of 0.6. In data set [8], this compound showed a half-life of 16 h.
For the compound `CC(C)(C)C1=C(C(=O)[O-])N2C(=O)C[C@H]2S1.[K+]`, the Inhibition zone amounted to 40 mm in [1]; 0 mm in [2]; 0 mm in [3]; 0 mm in [5]; 0 mm in data set [7]; 0 mm in [9]. Further, the Inhibition zone stood at 11 mm in [10] and 0 mm in data set [12]. The Krel in data set [4] is on record as 1. In [8], this compound gave a half-life of 9 h.
Regarding `CC(C)(C)C1=C(C(=O)[O-])N2C(=O)C[C@H]2[S+]1[O-].[K+]` (some centres undefined), the Inhibition zone in data set [1] was determined as 36 mm; in data set [2], 0 mm; in data set [3], 0 mm; in data set [5], 0 mm; in data set [7], 0 mm; in data set [9] it was 0 mm. Further, the figures for the Inhibition zone in data set [10] and in [12] were 10 mm and 8 mm, respectively. This compound gave a Krel in [4] of 39. The half-life in data set [8] was 5.5 h.
Turning to `C[C@@H](O)[C@H]1C(=O)N2C(C(=O)[O-])=C(C(C)(C)C)[S+]([O-])[C@H]12.[K+]` (some centres undefined), the Inhibition zone turned out to be 30 mm in data set [1]; 0 mm in data set [2]; 7 mm in data set [3]; 0 mm in data set [5]; 0 mm in [7]; 13 mm in data set [9]. Besides, the Inhibition zone was found to be 20 mm in [10] and 24 mm in data set [12]. Moreover, the Krel in data set [4] came to 33. Besides, the IC50 in [6] is 0.3 µM; in data set [11] it was 90 µM. The half-life in [8] was 6.5 h.
